{"source": "patent US20260035668A1", "about": "“ORGANOID CULTURE COMPOSITION FOR INDUCING RESERVE STEM CELLS AND CULTURE METHOD USING SAME” (KOREA UNIVERSITY RESEARCH AND BUSINESS FOUNDATION, priority 2022, published 2026)", "format_in_all_cases": "cell-based, C57Bl/6 mice", "key": {"[1]": {"system": "small intestine-derived organoids", "assay": "Immunofluorescence of reserve stem cell marker TERT in SAG-treated organoids", "conditions": "1 μM SAG after 3 μM CHIR99021 + 1 mM valproic acid; over time after incubation; FIG. 1", "method": "To prepare small intestine-derived organoids, small intestine tissue was isolated from 4 to 8 week-old C57Bl/6 mice and perfused with PBS. The tissue was cut into pieces of 2 to 4 mm in size, placed in PBS, and washed clearly about 10 times. Then, the tissue was placed in PBS containing 200 mM EDTA, and incubated at 4° C. for 1 hour with shaking. Thereafter, the cells detached from the tissue were passed through a 70 um cell strainer, and centrifuged at 200 g. Organoids were prepared by mixing Matrigel in a 1:1 volume ratio with a culture medium containing settled small intestinal crypts and then performing three-dimensional culture.\nThe medium was prepared by adding a 10 mM HEPES buffer, 1X glutamax, 1 mM N-acetylcysteine, 1 volume of N2, 2 volumes of B-27, 20 volumes of RSPO (R-spodin), 10 volumes of noggin per 100 volumes of total medium, and 50 ng/ml of EGF to advanced DMEM F/12 medium (Gibco™, Cat. No 12634010) as a basic medium for small intestine organoids.\nSubsequently, 10 μM Y-27632 was added to the medium, and the organoids prepared in Example 1-1 were inoculated and cultured for 3 days. […]"}, "[2]": {"system": "small intestine-derived organoids", "assay": "Expression of cell proliferation marker Ki-67 by immunofluorescence", "conditions": "1 μM SAG culture medium; 0, 24 and 48 hours after completion of culture; vs control group; FIG. 3", "method": "(§1) Specifically, the organoids were fixed with 4% PFA, and 0.1% Triton X-100 in PBS was used to increase a permeability of the organoids. Subsequently, 3% BSA and 0.1% Triton X-100 were placed in a solution diluted in PBS for 1 hour to block a membrane of the organoids, and incubated with primary antibodies (anti-hTERT (ab32020, abcam), anti-Ki67 (ab16667, abcam), anti-Green Fluorescent Protein (GFP-1020, aveslabs), anti-Dclk1 (ab31704, abcam), anti-UEA 1 (RL-1062-2, Vector Laboratories)) at 4° C. for 1 day. After washing with PBS three times for 10 minutes at room temperature, incubation was performed with fluorescent secondary antibodies corresponding to each primary antibody for 2 hours. After washing gain with PBS three times for 10 minutes at room temperature, the organoid nuclei were stained with 4′, 6-diamidino-2-phenylindole, dihydrochloride (DAPI) for 5 minutes at room temperature. In order to confirm the radiation resistance of reserve stem cell-derived organoids prepared in Example 1, the formation of small intestinal crypts and the expression of a cell proliferation marker Ki-67 were confirmed after radiation expose. Specifically, 3 μM CHIR99021 and 1 mM Valproic acid were added to advanced DMEM F/12 medium supplemented with HEPES, glutamax, N-acetylcysteine, N2, B-27, R-spodin, noggin, and EGF. […]"}, "[3]": {"system": "small intestine-derived organoids", "assay": "Radiation resistance: formation of small intestinal crypts after X-ray irradiation", "conditions": "FIG. 2", "method": "In order to confirm the radiation resistance of reserve stem cell-derived organoids prepared in Example 1, the formation of small intestinal crypts and the expression of a cell proliferation marker Ki-67 were confirmed after radiation expose. Specifically, 3 μM CHIR99021 and 1 mM Valproic acid were added to advanced DMEM F/12 medium supplemented with HEPES, glutamax, N-acetylcysteine, N2, B-27, R-spodin, noggin, and EGF. Thereafter, the organoids prepared in Example 1-1 were inoculated and cultured for 6 days, and then cultured for 3 days each under the conditions shown in the table below. [table] Then, the organoids cultured under each culture condition were irradiated once with 6 Gy of X-ray using a radiation irradiator (rs-320), and the formation of small intestinal crypts was confirmed after 72 hours."}, "[4]": {"system": "small intestinal organoids", "assay": "Differentiation potential: Dclk1 (tuft cells) and UEA-1 (goblet cells) immunofluorescence", "conditions": "culture medium comprising SAG vs control group not comprising SAG; FIG. 4", "method": "Subsequently, 10 μM Y-27632 was added to the medium, and the organoids prepared in Example 1-1 were inoculated and cultured for 3 days. Then, 3 μM CHIR99021 (Sigma-Aldrich, Cat. No SML1046-5 MG) and 1 mM valproic acid (Sigma-Aldrich, Cat. No P4543-10G) were added and incubated for 4 days at 37° C. in a 5% CO2 incubator, followed by treatment with 1 μM SAG (Abcam, Cat. No ab142160) and incubation to culture the reserve stem cell-induced organoids.\nas §1, with “temperature.” for “temperature. In order to confirm the radiation resistance of reserve stem cell-derived organoids prepared in Example 1, the formation of small intestinal crypts and the expression of a cell proliferation marker Ki-67 were confirmed after radiation expose. Specifically, 3 μM CHIR99021 and 1 mM Valproic acid were added to advanced DMEM F/12 medium supplemented with HEPES, glutamax, N-acetylcysteine, N2, B-27, R-spodin, noggin, and EGF.”"}}, "note": "Entries after “also recorded” stand apart in the source; their conditions may differ."}
{"smiles": "CNC1CCC(N(Cc2cccc(-c3ccncc3)c2)C(=O)c2sc3ccccc3c2Cl)CC1", "note": "(stereo not drawn) [SAG, smoothened receptor agonist (SAG)]", "values": [{"measurement": "activity of TERT (reserve stem cell marker)", "setting": "[1]", "result": "significantly increased over time"}, {"measurement": "expression of cell proliferation marker Ki-67", "setting": "[2]", "result": "expressed at a significantly higher level than a control group at each time point"}, {"measurement": "formation of small intestinal crypts", "setting": "[3]; 1 μM SAG + 3 μM CHIR99021 + 1 mM valproic acid, 3 days, 6 Gy X-ray once, after 72 hours, vs control groups 1 and 2", "result": "significantly better formation of small intestinal crypts compared to the other control groups"}, {"measurement": "radiation resistance", "setting": "[3]; 1 μM SAG, 6 Gy X-ray, vs control groups", "result": "had resistance to radiation; also recorded: significantly higher radiation resistance than the other control groups"}, {"measurement": "Dclk1 (tuft cells) marker", "setting": "[4]", "result": "significantly increased compared to the control group"}, {"measurement": "UEA-1 (goblet cells) marker", "setting": "[4]", "result": "significantly increased compared to the control group"}]}
